From ChEMBL document CHEMBL1201862, “PubChem BioAssay data set” (2004)
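Exposure lasted 48 hours, with cells grown in 96-well plates and compounds tested at five concentrations. At the GI50, growth is halved.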 The source made the active and inactive calls. Cut-off read from the data, not from the text of the source: active = GI50 up to about 1.1 µM and inactive = higher.

Assays:
Experiment in all cases: NCI anticancer screen, dose series, 48 h
M14 = tested on: M14
Malme-3M = tested on: Malme-3M
RXF 393 = tested on: RXF 393
SF-268 = tested on: SF-268
KM12 = tested on: KM12
CAKI-1 = tested on: CAKI-1
HOP-92 = tested on: HOP-92
SR = tested on: SR
SK-MEL-5 = tested on: SK-MEL-5
SK-MEL-28 = tested on: SK-MEL-28
HCT-15 = tested on: HCT-15
ACHN = tested on: ACHN
BT-549 = tested on: BT-549
EKVX = tested on: EKVX
SNB-19 = tested on: SNB-19
MDA-N = tested on: MDA-N
CCRF-CEM = tested on: CCRF-CEM
K562 = tested on: K562
HCC 2998 = tested on: HCC 2998

SMILES	GI50 (M14)	GI50 (Malme-3M)	GI50 (RXF 393)	GI50 (SF-268)	GI50 (KM12)	GI50 (CAKI-1)	GI50 (HOP-92)	GI50 (SR)	GI50 (SK-MEL-5)	GI50 (SK-MEL-28)	GI50 (HCT-15) [µM]	GI50 (ACHN)	GI50 (BT-549)	GI50 (EKVX)	GI50 (SNB-19)	GI50 (MDA-N)	GI50 (CCRF-CEM)	GI50 (K562)	GI50 (HCC 2998)
O=[N+]([O-])c1ccc(/C=N/CC2CCCN3CCCCC23)cc1 (centres undefined)	55 µM (inactive)	> 100 µM (inactive)	46 µM (inactive)	> 100 µM (inactive)	33.2 µM (inactive)	> 100 µM (inactive)	> 100 µM (inactive)	4.22 µM (inactive)	> 100 µM (inactive)	> 100 µM (inactive)	42.7	> 100 µM (inactive)	> 100 µM (inactive)	> 100 µM (inactive)	> 100 µM (inactive)	34.9 µM (inactive)	40.8 µM (inactive)	19.5 µM (inactive)	28.6 µM (inactive)
CC1=C(C)C(=O)O[C@@H]([C@](C)(O)[C@]2(O)CC[C@@]3(O)[C@@H]4C[C@H](O)[C@]5(O)[C@@H](O)C=CC(=O)[C@]5(C)[C@H]4CC[C@]23C)C1	> 100 µM (inactive)	> 100 µM (inactive)	> 100 µM (inactive)	> 100 µM (inactive)	> 100 µM (inactive)	> 100 µM (inactive)	> 100 µM (inactive)	31.3 µM (inactive)	> 100 µM (inactive)	> 100 µM (inactive)	> 100	> 100 µM (inactive)	> 100 µM (inactive)	> 100 µM (inactive)	> 100 µM (inactive)	93.1 µM (inactive)	28.4 µM (inactive)	67.3 µM (inactive)	> 100 µM (inactive)
CCN(CC)CCCNc1nncc2c(C)c3[nH]c4ccc(OC)cc4c3cc12	1.61 µM (inactive)	0.916 µM (active)	1.32 µM (inactive)	0.706 µM (active)	0.592 µM (active)	8.41 µM (inactive)	0.369 µM (active)	0.414 µM (active)	0.935 µM (active)	0.766 µM (active)	10.3	1.08 µM (active)	1.54 µM (inactive)	2.11 µM (inactive)	0.318 µM (active)	0.695 µM (active)	0.0535 µM (active)	0.14 µM (active)	0.65 µM (active)
COc1ccc([N+](=O)[O-])c2c(NCCCN(C)C)c3ccccc3nc12	0.183 µM (active)	0.155 µM (active)	0.0838 µM (active)	0.236 µM (active)	0.0991 µM (active)	0.333 µM (active)	0.0782 µM (active)	< 0.01 µM (active)	0.106 µM (active)	3 µM (inactive)	0.0935	0.13 µM (active)	0.701 µM (active)	0.107 µM (active)	0.202 µM (active)	0.425 µM (active)	0.546 µM (active)	0.133 µM (active)	< 0.0319 µM (active)
O=c1c2c3c(sc2nc2n1N=CN(c1ccccc1)C2)CCCC3	> 100 µM (inactive)	> 100 µM (inactive)	> 100 µM (inactive)	> 100 µM (inactive)	> 100 µM (inactive)	> 100 µM (inactive)	> 100 µM (inactive)	> 100 µM (inactive)	> 100 µM (inactive)	> 100 µM (inactive)	> 100	> 100 µM (inactive)	> 100 µM (inactive)	> 100 µM (inactive)	> 100 µM (inactive)	> 100 µM (inactive)	> 100 µM (inactive)	> 100 µM (inactive)	> 100 µM (inactive)
CC(=O)OC(C)(C)/C=C/C(=O)[C@](C)(O)[C@H]1[C@H](O)C[C@@]2(C)[C@@H]3CC=C4[C@@H](C[C@H](O)C(=O)C4(C)C)[C@]3(C)C(=O)C[C@]12C	< 0.01 µM (active)	< 0.01 µM (active)	< 0.01 µM (active)	< 0.01 µM (active)	1.4 µM (inactive)	< 0.01 µM (active)	0.0175 µM (active)	< 0.01 µM (active)	< 0.01 µM (active)	< 0.01 µM (active)	< 0.01	< 0.01 µM (active)	< 0.01 µM (active)	0.0102 µM (active)	< 0.0174 µM (active)	< 0.01 µM (active)	< 0.01 µM (active)	< 0.01 µM (active)	< 0.01 µM (active)
